From publication PMC8881573, “Inhibition of SRP-dependent protein secretion by the bacterial alarmone (p)ppGpp” (Nature Communications, 2022) come the findings set out here.

The term Kd denotes the concentration at which binding is half-saturated. Read a low Kd as tighter binding.

Holding throughout (assay): Isothermal titration calorimetry (ITC) of nucleotide binding
(Isothermal titration calorimetry measures the heat released or taken up as one component is titrated into another.)

The target in one test is T1, (Ec)Ffh-NG (Escherichia coli, UniProt P0AGD7).
T1 construct: purified NG domains of (Ec)Ffh, (Ec)FtsY and (Bs)Ffh; His6 (C); made in house; host or cells: E. coli BL21 (DE3)
More on the design: species or system E. coli. As to the method:
(§1) Ligands and proteins (purified NG domains of (Ec)Ffh, (Ec)FtsY and (Bs)Ffh) were diluted with a buffer containing 20 mM HEPES-Na (pH 7.5), 200 mM NaCl, 20 mM MgCl2 and 20 mM KCl. The NG domains of (Ec)Ffh, (Ec)FtsY and (Bs)Ffh were titrated in the sample-cell at a nominal concentration of 25 µM each. The nucleotides GDP, GTP, ppGpp and pppGpp (Jena Bioscience, Germany) were placed in the syringe and their concentrations were predetermined by absorbance at 252 nm to saturate the protein samples during the titrations. All the measurements were performed at 25 °C with the instrument MicroCal PEAQ-ITC (©Malvern Panalytical) with a method consisting of 13 injections (first 0.4 µL, and the rest 3 µL each) and 150 s of spacing. The raw data (see source) were processed with the MicroCal PEAQ-ITC Analysis Software (©Malvern Panalytical) using the “one set of sites” models.

Another test has as its target T2, (Ec)FtsY-NG (Escherichia coli, UniProt P10121).
T2 construct: purified NG domains of (Ec)Ffh, (Ec)FtsY and (Bs)Ffh; His6 (C); made in house; host or cells: E. coli BL21 (DE3)
Also noted: species or system E. coli. The note with it: NG domain, 25 °C, one set of sites model. As to the method: as §1

For a further test, the target named is T3, (Bs)Ffh-NG (Bacillus subtilis, UniProt P37105).
T3 construct: purified NG domains of (Ec)Ffh, (Ec)FtsY and (Bs)Ffh; His6 (N); made in house; host or cells: E. coli Rosetta pLysS
T3 sequence (P37105 1-297 limits assumed): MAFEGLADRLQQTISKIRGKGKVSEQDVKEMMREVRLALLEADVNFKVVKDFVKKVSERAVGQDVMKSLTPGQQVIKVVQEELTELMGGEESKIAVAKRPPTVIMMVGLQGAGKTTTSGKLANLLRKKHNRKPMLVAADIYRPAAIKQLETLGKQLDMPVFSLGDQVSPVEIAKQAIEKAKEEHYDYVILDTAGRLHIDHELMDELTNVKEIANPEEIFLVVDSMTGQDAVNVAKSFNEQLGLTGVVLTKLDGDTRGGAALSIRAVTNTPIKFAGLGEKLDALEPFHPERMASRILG
More on the design: species or system B. subtilis. The note with it: NG domain, 25 °C, one set of sites model. Here is the method:
as §1

T1 sequence (P0AGD7 1-296): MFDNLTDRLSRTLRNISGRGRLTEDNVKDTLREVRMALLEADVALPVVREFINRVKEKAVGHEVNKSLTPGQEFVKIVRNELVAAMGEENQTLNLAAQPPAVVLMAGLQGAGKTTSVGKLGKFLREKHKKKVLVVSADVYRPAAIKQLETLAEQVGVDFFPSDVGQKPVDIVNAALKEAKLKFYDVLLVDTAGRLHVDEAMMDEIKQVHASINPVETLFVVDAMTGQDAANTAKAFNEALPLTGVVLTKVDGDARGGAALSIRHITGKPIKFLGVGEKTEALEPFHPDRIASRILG
T2 sequence (P10121 197-497): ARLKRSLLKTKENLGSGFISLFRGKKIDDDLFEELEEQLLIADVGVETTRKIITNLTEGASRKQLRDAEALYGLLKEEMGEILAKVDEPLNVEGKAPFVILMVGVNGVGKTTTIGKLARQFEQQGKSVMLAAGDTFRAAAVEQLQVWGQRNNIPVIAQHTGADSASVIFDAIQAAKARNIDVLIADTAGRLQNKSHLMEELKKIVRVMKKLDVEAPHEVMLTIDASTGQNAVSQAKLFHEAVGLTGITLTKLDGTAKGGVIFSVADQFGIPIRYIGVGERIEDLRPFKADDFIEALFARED

Consider `Nc1nc2c(ncn2[C@@H]2O[C@H](COP(=O)(O)OP(=O)(O)O)[C@@H](OP(=O)(O)OP(=O)(O)O)[C@H]2O)c(=O)[nH]1` [ppGpp], for which the Kd on (Ec)Ffh-NG came out at 7.9 ± 1.9 µM; on (Ec)FtsY-NG, 21.7 ± 5.4 µM; on (Bs)Ffh-NG it was 4.8 ± 1.8 µM.
On (Ec)Ffh-NG, `Nc1nc2c(ncn2[C@@H]2O[C@H](COP(=O)(O)OP(=O)(O)OP(=O)(O)O)[C@@H](OP(=O)(O)OP(=O)(O)O)[C@H]2O)c(=O)[nH]1` [pppGpp] gave a dissociation constant Kd of 13.9 ± 7.1 µM.
